Experimental data taken from PubChem BioAssay AID1963860 (Molecular Pharmacology Branch, DTP, NCI, 2024).

Tested on: CN0375-F725-PDC KRAS spheroid viability
Experiment: Anticancer human tumor CN0375-F725-PDC patient-derived colon carcinoma cell line growth inhibition [KRAS2]
Details: spheroids with HUVEC and MSC; for IC50: curve of first compound; for viability, T/C: stronger effect = lower value
In short: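 Combination screen of spheroid viability in tumor-cell co-cultures with endothelial (HUVEC) and mesenchymal stem cell stroma. Each agent was tested in half-log dilutions, topping at clinical Cmax or at 10 microM without a known Cmax.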

[1] = second compound 0.0316 µM, first compound 0.0316 µM
[2] = second compound 0.0316 µM, first compound 0.1 µM
[3] = second compound 0.0316 µM, first compound 0.316 µM
[4] = second compound 0.0316 µM, first compound 1 µM
[5] = second compound 0.0316 µM, first compound 3.16 µM
[6] = second compound 0.0316 µM, first compound 10 µM
[7] = second compound 0.1 µM, first compound 0.0316 µM
[8] = second compound 0.1 µM, first compound 0.1 µM
[9] = second compound 0.1 µM, first compound 0.316 µM
[10] = second compound 0.1 µM, first compound 1 µM
[11] = second compound 0.1 µM, first compound 3.16 µM
[12] = second compound 0.1 µM, first compound 10 µM
[13] = second compound 0.316 µM, first compound 0.0316 µM
[14] = second compound 0.316 µM, first compound 0.1 µM
[15] = second compound 0.316 µM, first compound 0.316 µM
[16] = second compound 0.316 µM, first compound 1 µM
[17] = second compound 0.316 µM, first compound 3.16 µM
[18] = second compound 0.316 µM, first compound 10 µM
[19] = second compound 1 µM, first compound 0.0316 µM
[20] = second compound 1 µM, first compound 0.1 µM
[21] = second compound 1 µM, first compound 0.316 µM
[22] = second compound 1 µM, first compound 1 µM
[23] = second compound 1 µM, first compound 3.16 µM
[24] = second compound 1 µM, first compound 10 µM
[25] = second compound 3.16 µM, first compound 0.0316 µM
[26] = second compound 3.16 µM, first compound 0.1 µM
[27] = second compound 3.16 µM, first compound 0.316 µM
[28] = second compound 3.16 µM, first compound 1 µM
[29] = second compound 3.16 µM, first compound 3.16 µM
[30] = second compound 3.16 µM, first compound 10 µM
[31] = second compound 0.1 µM, first compound 0.01 µM
[32] = second compound 0.316 µM, first compound 0.01 µM
[33] = second compound 1 µM, first compound 0.01 µM
[34] = second compound 3.16 µM, first compound 0.01 µM
[35] = second compound 10 µM, first compound 0.01 µM
[36] = second compound 10 µM, first compound 0.0316 µM
[37] = second compound 10 µM, first compound 0.1 µM
[38] = second compound 10 µM, first compound 0.316 µM
[39] = second compound 10 µM, first compound 1 µM
[40] = second compound 10 µM, first compound 3.16 µM
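Also: spheroids exposed to agents for 7 days.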

CC1OCC2(CCN(c3cnc(Sc4ccnc(N)c4Cl)c(N)n3)CC2)C1N (stereo not given) + C=CC(=O)N1CCN(c2nc(OCC3CCCN3C)nc3c2CCN(c2cccc4cccc(C)c24)C3)CC1CC#N
IC50 (second compound 0.0316 µM): > 10 µM | IC50 (second compound 0.1 µM): > 10 µM | IC50 (second compound 0.316 µM): > 10 µM | IC50 (second compound 1 µM): 8.24 µM | IC50 (second compound 3.16 µM): < 0.0316 µM | viability, T/C [1]: 99.2% | viability, T/C [2]: 90.6% | viability, T/C [3]: 77.1% | viability, T/C [4]: 81.9% | viability, T/C [5]: 79.7% | viability, T/C [6]: 63.7% | viability, T/C [7]: 102% | viability, T/C [8]: 90.9% | viability, T/C [9]: 77.7% | viability, T/C [10]: 80% | viability, T/C [11]: 74.4% | viability, T/C [12]: 62.9% | viability, T/C [13]: 102% | viability, T/C [14]: 89.9% | viability, T/C [15]: 81.8% | viability, T/C [16]: 78.3% | viability, T/C [17]: 71.4% | viability, T/C [18]: 60.4% | viability, T/C [19]: 83.2% | viability, T/C [20]: 86% | viability, T/C [21]: 73.5% | viability, T/C [22]: 61.8% | viability, T/C [23]: 64.2% | viability, T/C [24]: 46.5% | viability, T/C [25]: 30.2% | viability, T/C [26]: 18.2% | viability, T/C [27]: 14.2% | viability, T/C [28]: 13% | viability, T/C [29]: 13.2% | viability, T/C [30]: 9.43%

Cn1nccc1Nc1nccc(-c2cc3c(s2)C(C)(C)N(CCN2CCOCC2)C3=O)n1 + C=CC(=O)N1CCN(c2nc(OCC3CCCN3C)nc3c2CCN(c2cccc4cccc(C)c24)C3)CC1CC#N
IC50 (second compound 0.0316 µM): 3.93 µM | IC50 (second compound 0.1 µM): 2.98 µM | IC50 (second compound 0.316 µM): 2.23 µM | IC50 (second compound 1 µM): 0.739 µM | IC50 (second compound 3.16 µM): < 0.0316 µM | viability, T/C [1]: 100% | viability, T/C [2]: 97.3% | viability, T/C [3]: 76.9% | viability, T/C [4]: 68.9% | viability, T/C [5]: 52.7% | viability, T/C [6]: 39% | viability, T/C [7]: 95.7% | viability, T/C [8]: 93.4% | viability, T/C [9]: 77.2% | viability, T/C [10]: 63.4% | viability, T/C [11]: 50.4% | viability, T/C [12]: 39.7% | viability, T/C [13]: 91.5% | viability, T/C [14]: 91.3% | viability, T/C [15]: 70.3% | viability, T/C [16]: 60.3% | viability, T/C [17]: 46.9% | viability, T/C [18]: 38% | viability, T/C [19]: 87.6% | viability, T/C [20]: 82.8% | viability, T/C [21]: 52.4% | viability, T/C [22]: 47% | viability, T/C [23]: 39.1% | viability, T/C [24]: 23.1% | viability, T/C [25]: 27.7% | viability, T/C [26]: 24.3% | viability, T/C [27]: 11.9% | viability, T/C [28]: 7.82% | viability, T/C [29]: 5.81% | viability, T/C [30]: 2.15%

CC(=O)OC12COC1CC(O)C1(C)C(=O)C(O)C3=C(C)C(OC(=O)C(O)C(NC(=O)OC(C)(C)C)c4ccccc4)CC(O)(C(OC(=O)c4ccccc4)C21)C3(C)C (stereo not given) + CC1OCC2(CCN(c3cnc(Sc4ccnc(N)c4Cl)c(N)n3)CC2)C1N
IC50 (second compound 0.1 µM): > 3.16 µM | IC50 (second compound 0.316 µM): > 3.16 µM | IC50 (second compound 1 µM): > 3.16 µM | IC50 (second compound 3.16 µM): > 3.16 µM | IC50 (second compound 10 µM): > 3.16 µM | viability, T/C [31]: 93.5% | viability, T/C [7]: 93.2% | viability, T/C [8]: 83.8% | viability, T/C [9]: 79.1% | viability, T/C [10]: 79.6% | viability, T/C [11]: 71.5% | viability, T/C [32]: 91.5% | viability, T/C [13]: 88.4% | viability, T/C [14]: 79.4% | viability, T/C [15]: 74.7% | viability, T/C [16]: 71.8% | viability, T/C [17]: 71.8% | viability, T/C [33]: 95.6% | viability, T/C [19]: 102% | viability, T/C [20]: 87.5% | viability, T/C [21]: 83.8% | viability, T/C [22]: 80.7% | viability, T/C [23]: 76.7% | viability, T/C [34]: 77.6% | viability, T/C [25]: 74.8% | viability, T/C [26]: 68% | viability, T/C [27]: 64% | viability, T/C [28]: 64.5% | viability, T/C [29]: 58.6% | viability, T/C [35]: 73.9% | viability, T/C [36]: 70.1% | viability, T/C [37]: 67.2% | viability, T/C [38]: 59.8% | viability, T/C [39]: 57.2% | viability, T/C [40]: 53.2%

CN(C)C/C=C/C(=O)Nc1cc2c(Nc3ccc(F)c(Cl)c3)ncnc2cc1O[C@H]1CCOC1 + CC1OCC2(CCN(c3cnc(Sc4ccnc(N)c4Cl)c(N)n3)CC2)C1N
IC50 (second compound 0.1 µM): > 0.1 µM | IC50 (second compound 0.316 µM): > 0.1 µM | IC50 (second compound 1 µM): > 0.1 µM | IC50 (second compound 3.16 µM): > 0.1 µM | IC50 (second compound 10 µM): > 0.1 µM | viability, T/C (second compound 0.1 µM, first compound 0.000316 µM): 95.9% | viability, T/C (second compound 0.1 µM, first compound 0.001 µM): 87% | viability, T/C (second compound 0.1 µM, first compound 0.00316 µM): 87.5% | viability, T/C [31]: 85.9% | viability, T/C [7]: 80.4% | viability, T/C [8]: 80.4% | viability, T/C (second compound 0.316 µM, first compound 0.000316 µM): 93.6% | viability, T/C (second compound 0.316 µM, first compound 0.001 µM): 87.7% | viability, T/C (second compound 0.316 µM, first compound 0.00316 µM): 84% | viability, T/C [32]: 86.9% | viability, T/C [13]: 83.2% | viability, T/C [14]: 75.7% | viability, T/C (second compound 1 µM, first compound 0.000316 µM): 94.8% | viability, T/C (second compound 1 µM, first compound 0.001 µM): 97.5% | viability, T/C (second compound 1 µM, first compound 0.00316 µM): 88.3% | viability, T/C [33]: 85.5% | viability, T/C [19]: 83.5% | viability, T/C [20]: 77.7% | viability, T/C (second compound 3.16 µM, first compound 0.000316 µM): 73.9% | viability, T/C (second compound 3.16 µM, first compound 0.001 µM): 77.7% | viability, T/C (second compound 3.16 µM, first compound 0.00316 µM): 73.7% | viability, T/C [34]: 71% | viability, T/C [25]: 71.6% | viability, T/C [26]: 72.3% | viability, T/C (second compound 10 µM, first compound 0.000316 µM): 90.3% | viability, T/C (second compound 10 µM, first compound 0.001 µM): 96% | viability, T/C (second compound 10 µM, first compound 0.00316 µM): 88% | viability, T/C [35]: 84.6% | viability, T/C [36]: 80.6% | viability, T/C [37]: 82.8%

O=C(c1cc(Cc2n[nH]c(=O)c3ccccc23)ccc1F)N1CCN(C(=O)C2CC2)CC1 + CC1OCC2(CCN(c3cnc(Sc4ccnc(N)c4Cl)c(N)n3)CC2)C1N
IC50 (second compound 0.1 µM): > 10 µM | IC50 (second compound 0.316 µM): > 10 µM | IC50 (second compound 1 µM): > 10 µM | IC50 (second compound 3.16 µM): > 10 µM | IC50 (second compound 10 µM): > 10 µM | viability, T/C [7]: 97.7% | viability, T/C [8]: 98.4% | viability, T/C [9]: 91.3% | viability, T/C [10]: 100% | viability, T/C [11]: 97.8% | viability, T/C [12]: 90% | viability, T/C [13]: 100% | viability, T/C [14]: 93.9% | viability, T/C [15]: 90.3% | viability, T/C [16]: 89.6% | viability, T/C [17]: 93% | viability, T/C [18]: 86.4% | viability, T/C [19]: 107% | viability, T/C [20]: 98.3% | viability, T/C [21]: 93.6% | viability, T/C [22]: 92.6% | viability, T/C [23]: 97.6% | viability, T/C [24]: 93.9% | viability, T/C [25]: 83.4% | viability, T/C [26]: 82.2% | viability, T/C [27]: 82.5% | viability, T/C [28]: 80.7% | viability, T/C [29]: 80.7% | viability, T/C [30]: 76.4% | viability, T/C [36]: 79.9% | viability, T/C [37]: 83.6% | viability, T/C [38]: 106% | viability, T/C [39]: 77% | viability, T/C [40]: 71.4% | viability, T/C (second compound 10 µM, first compound 10 µM): 71.1%
